{
  "source": "patent US20140308726A1",
  "about": "“Controlling Bacterial Biofilms in Ethanol Production” (ANITOX CORPORATION, priority 2011, published 2014)",
  "origin": "cited, not measured here",
  "key": {"Lactobacillus [1]": {"system": "Lactobacillus", "conditions": "600 mg/L"}, "yeast": {"system": "yeast", "conditions": "8 g/L; beet molasses batch fermentation"}, "Lactobacillus [2]": {"system": "Lactobacillus", "conditions": "8.6 ppm Nisin combined with 0.1% Tween 20"}},
  "note": "Read-outs that look alike come from different tables or passages of the source.",
  "data": [
    {"compound": "O=C(O)CCC(=O)O", "note": "[Succinic acid]", "values": [
      {"measurement": "Reduction of Lactobacillus concentrations", "setting": "Lactobacillus [1]; by itself", "value": 78, "unit": "%"},
      {"measurement": "Reduction of Lactobacillus concentrations", "setting": "Lactobacillus [1]; in the presence of ethanol", "value": "up to 96%"}
    ]},
    {"compound": "CC(O)C(=O)O", "note": "(centres unmarked) [lactic acid]", "values": [
      {"measurement": "Reduction of alcohol production rate", "setting": "yeast", "value": 80, "unit": "%"},
      {"measurement": "Reduction of yeast viability", "setting": "yeast", "value": 95, "unit": "%"}
    ]},
    {"compound": "Nisin", "values": [
      {"measurement": "Delay of the lag phase of lactobacillus", "setting": "Lactobacillus [2]", "value": 12, "unit": "h"}
    ]}
  ]
}
